US6660501B2, “Production of proteins by cell culture” (Lonza Group, AG, priority 1986, dated 2003)

Test system: NT1/19 cells
Experiment: Effect of varying alkanoates on antibody production from hybridoma cells
Type: cell-based
Settings: for AVERAGE DATA FROM EXP. #1 & #2: average of relative productivity, control 100.00; for PRODUCTIVITY EXP. #1: control 3.30; for PRODUCTIVITY EXP #2: control 2.39
Protocol: The IgM secreting mouse hybridoma cell line NB1/19 was grown in suspension culture in Dulbeccos Modified Eagles Minimum (DMEM) serum-free medium containing albumin, insulin, transferrin, gentamycin and other additives as required to cultivate cells in suspension culture. The NB1/19 cell line produces a mouse monoclonal antibody having specificity for an antigenic determinant of human B-type blood cells. The preparation of this call line is described in detail in the specification of British Patent GB 2097425B. It will be appreciated, however, that other hybridoma cell lines may be used in place of this particular cell line as appropriate in this and other examples.
The cells were grown to a viable cell density of 1.0-1.5×10^6 cells/ml. Viable cell density was determined by counting the number of cells which exclude trypan blue, a staining agent. A sample of the suspension culture was diluted in a serum-free medium to a density of about 1.3×10^5 cells/ml. Aliquots of 50 ml in volume were dispensed into shake flasks and sodium butyrate added at concentrations of 0.1 mM, 0.3 mM, 0.5 mM and 1.0 mM.
The shake flasks were gassed with 5% CO2-95% air, and sealed and incubated with shaking at 37° C. for up to 207 hours. (Table 1). Samples ([…]) were removed from the culture by pipette. 100 μl was used to determine viable cell count and the reminder centrifuged at 300×g for five minutes. Supernatants were stored at −20° C. prior to antibody determination by enzyme linked immunosorbent assay (ELISA).
NT1/19 cells were cultured as in Example 1. Varying straight chain sodium alkanoate salts (propionate, butyrate, bentanoate or hexanoate) were added to the inoculum at the concentrations indicated in Table 5.

Structure (SMILES)	AVERAGE DATA FROM EXP. #1 & #2 (0.50 mM alkanoate)	PRODUCTIVITY EXP. #1 (0.50 mM alkanoate)	AVERAGE DATA FROM EXP. #1 & #2 (1.00 mM alkanoate)	PRODUCTIVITY EXP #2 (1.00 mM alkanoate)	PRODUCTIVITY EXP. #1 (1.00 mM alkanoate)	RELATIVE PRODUCTIVITY EXP. #1 (0.50 mM alkanoate)	RELATIVE PRODUCTIVITY EXP. #1 (1.00 mM alkanoate)	RELATIVE PRODUCTIVITY EXP. #2 (1.00 mM alkanoate)
CCC(=O)O [PROPIONATE, propionate]	172.73	5.70 ug antibody per 10^5 cells	210.07	4.95 ug antibody per 10^5 cells	7.03 ug antibody per 10^5 cells	–	–	–
CCCCC(=O)[O-].[Na+] [PENANOATE, bentanoate]	163.64	5.40 ug antibody per 10^5 cells	218.09	5.50 ug antibody per 10^5 cells	6.80 ug antibody per 10^5 cells	163.6 % of control	206.1 % of control	230.1 % of control
